According to ChEMBL document CHEMBL1201862, “PubChem BioAssay data set” (2004):
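Compound exposure: 48 hours, 5 concentrations, 96-well plates. Abbreviation: GI50, concentration required for 50% inhibition of growth.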 Active and inactive are the calls of the source. Cut-off read from the data, not from the text of the source: active = GI50 up to about 1.1 µM and inactive = higher.

Columns and labels:
Experiment in all cases: DTP human tumour cell line panel, 48 h
DU-145 = tested on: DU-145
MDA-MB-231 = tested on: MDA-MB-231
SK-OV-3 = tested on: SK-OV-3
CAKI-1 = tested on: CAKI-1
OVCAR-4 = tested on: OVCAR-4
CCRF-CEM = tested on: CCRF-CEM
NCI-H522 = tested on: NCI-H522
MOLT-4 = tested on: MOLT-4
M14 = tested on: M14
K562 = tested on: K562
HCC 2998 = tested on: HCC 2998
SK-MEL-2 = tested on: SK-MEL-2
UACC-257 = tested on: UACC-257
HL-60 = tested on: HL-60
HOP-62 = tested on: HOP-62
IGROV-1 = tested on: IGROV-1
MCF7 = tested on: MCF7
NCI-H226 = tested on: NCI-H226
EKVX = tested on: EKVX
A549 = tested on: A549
SK-MEL-5 = tested on: SK-MEL-5
U-251 = tested on: U-251
Hs-578T = tested on: Hs-578T
SW-620 = tested on: SW-620
ACHN = tested on: ACHN
SF-295 = tested on: SF-295
HCT-116 = tested on: HCT-116
KM12 = tested on: KM12
RXF 393 = tested on: RXF 393
MDA-N = tested on: MDA-N
UACC-62 = tested on: UACC-62
SK-MEL-28 = tested on: SK-MEL-28
NCI-H23 = tested on: NCI-H23
NCI-H460 = tested on: NCI-H460
NCI/ADR-RES = tested on: NCI/ADR-RES
COLO 205 = tested on: COLO 205
T47D = tested on: T47D
SN12C = tested on: SN12C
SF-539 = tested on: SF-539
Malme-3M = tested on: Malme-3M
786-0 = tested on: 786-0
SNB-19 = tested on: SNB-19
OVCAR-8 = tested on: OVCAR-8
OVCAR-3 = tested on: OVCAR-3
OVCAR-5 = tested on: OVCAR-5
HT-29 = tested on: HT-29
SF-268 = tested on: SF-268
BT-549 = tested on: BT-549
PC-3 = tested on: PC-3
HOP-92 = tested on: HOP-92
MDA-MB-435 = tested on: MDA-MB-435
UO-31 = tested on: UO-31
A498 = tested on: A498
HCT-15 = tested on: HCT-15
TK-10 = tested on: TK-10
LOX IMVI = tested on: LOX IMVI
SNB-75 = tested on: SNB-75
RPMI-8226 = tested on: RPMI-8226

SMILES: Cc1ccc(S(=O)(=O)CN2C(=O)C(c3ccccc3)(c3ccccc3)C23OC(c2ccc(Cl)cc2)=CC3=O)cc1 (stereo not drawn)
- GI50 (DU-145): > 10 µM (inactive)
- GI50 (MDA-MB-231): > 10 µM (inactive)
- GI50 (SK-OV-3): > 10 µM (inactive)
- GI50 (CAKI-1): > 10 µM (inactive)
- GI50 (OVCAR-4): > 10 µM (inactive)
- GI50 (CCRF-CEM): > 10 µM (inactive)
- GI50 (NCI-H522): > 10 µM (inactive)
- GI50 (MOLT-4): > 10 µM (inactive)
- GI50 (M14): > 10 µM (inactive)
- GI50 (K562): > 10 µM (inactive)
- GI50 (HCC 2998): > 10 µM (inactive)
- GI50 (SK-MEL-2): > 10 µM (inactive)
- GI50 (UACC-257): > 10 µM (inactive)
- GI50 (HL-60): > 10 µM (inactive)
- GI50 (HOP-62): > 10 µM (inactive)
- GI50 (IGROV-1): > 10 µM (inactive)
- GI50 (MCF7): > 10 µM (inactive)
- GI50 (NCI-H226): > 10 µM (inactive)
- GI50 (EKVX): > 10 µM (inactive)
- GI50 (A549): > 10 µM (inactive)
- GI50 (SK-MEL-5): > 10 µM (inactive)
- GI50 (U-251): > 10 µM (inactive)
- GI50 (Hs-578T): > 10 µM (inactive)
- GI50 (SW-620): > 10 µM (inactive)
- GI50 (ACHN): > 10 µM (inactive)
- GI50 (SF-295): > 10 µM (inactive)
- GI50 (HCT-116): > 10 µM (inactive)
- GI50 (KM12): > 10 µM (inactive)
- GI50 (RXF 393): > 10 µM (inactive)
- GI50 (MDA-N): > 10 µM (inactive)
- GI50 (UACC-62): > 10 µM (inactive)
- GI50 (SK-MEL-28): > 10 µM (inactive)
- GI50 (NCI-H23): > 10 µM (inactive)
- GI50 (NCI-H460): > 10 µM (inactive)
- GI50 (NCI/ADR-RES): > 10 µM (inactive)
- GI50 (COLO 205): > 10 µM (inactive)
- GI50 (T47D): > 10 µM (inactive)
- GI50 (SN12C): > 10 µM (inactive)
- GI50 (SF-539): > 10 µM (inactive)
- GI50 (Malme-3M): > 10 µM (inactive)
- GI50 (786-0): > 10 µM (inactive)
- GI50 (SNB-19): > 10 µM (inactive)
- GI50 (OVCAR-8): > 10 µM (inactive)
- GI50 (OVCAR-3): > 10 µM (inactive)
- GI50 (OVCAR-5): > 10 µM (inactive)
- GI50 (HT-29): > 10 µM (inactive)
- GI50 (SF-268): > 10 µM (inactive)
- GI50 (BT-549): > 10 µM (inactive)
- GI50 (PC-3): 4.07 µM (inactive)
- GI50 (HOP-92): > 10 µM (inactive)
- GI50 (MDA-MB-435): > 10 µM (inactive)
- GI50 (UO-31): > 10 µM (inactive)
- GI50 (A498): > 10 µM (inactive)
- GI50 (HCT-15): > 10 µM
- GI50 (TK-10): > 10 µM (inactive)
- GI50 (LOX IMVI): > 10 µM (inactive)
- GI50 (SNB-75): > 10 µM (inactive)

SMILES: Cc1n[nH]c(=O)n1-n1cccc1
- GI50 (DU-145): > 100 µM (inactive)
- GI50 (MDA-MB-231): > 100 µM (inactive)
- GI50 (RPMI-8226): > 100 µM (inactive)
- GI50 (SK-OV-3): > 100 µM (inactive)
- GI50 (CAKI-1): > 100 µM (inactive)
- GI50 (OVCAR-4): > 100 µM (inactive)
- GI50 (CCRF-CEM): > 100 µM (inactive)
- GI50 (NCI-H522): > 100 µM (inactive)
- GI50 (MOLT-4): > 100 µM (inactive)
- GI50 (M14): > 100 µM (inactive)
- GI50 (K562): > 100 µM (inactive)
- GI50 (HCC 2998): > 100 µM (inactive)
- GI50 (SK-MEL-2): > 100 µM (inactive)
- GI50 (UACC-257): > 100 µM (inactive)
- GI50 (HOP-62): > 100 µM (inactive)
- GI50 (IGROV-1): > 100 µM (inactive)
- GI50 (MCF7): > 100 µM (inactive)
- GI50 (NCI-H226): > 100 µM (inactive)
- GI50 (EKVX): > 100 µM (inactive)
- GI50 (A549): > 100 µM (inactive)
- GI50 (SK-MEL-5): > 100 µM (inactive)
- GI50 (U-251): > 100 µM (inactive)
- GI50 (Hs-578T): > 100 µM (inactive)
- GI50 (SW-620): > 100 µM (inactive)
- GI50 (ACHN): > 100 µM (inactive)
- GI50 (SF-295): > 100 µM (inactive)
- GI50 (HCT-116): > 100 µM (inactive)
- GI50 (KM12): > 100 µM (inactive)
- GI50 (RXF 393): > 100 µM (inactive)
- GI50 (MDA-N): > 100 µM (inactive)
- GI50 (UACC-62): > 100 µM (inactive)
- GI50 (SK-MEL-28): > 100 µM (inactive)
- GI50 (NCI-H23): > 100 µM (inactive)
- GI50 (NCI-H460): > 100 µM (inactive)
- GI50 (NCI/ADR-RES): > 100 µM (inactive)
- GI50 (COLO 205): > 100 µM (inactive)
- GI50 (T47D): > 100 µM (inactive)
- GI50 (SN12C): > 100 µM (inactive)
- GI50 (SF-539): > 100 µM (inactive)
- GI50 (Malme-3M): > 100 µM (inactive)
- GI50 (786-0): > 100 µM (inactive)
- GI50 (SNB-19): > 100 µM (inactive)
- GI50 (OVCAR-8): > 100 µM (inactive)
- GI50 (OVCAR-3): > 100 µM (inactive)
- GI50 (OVCAR-5): > 100 µM (inactive)
- GI50 (HT-29): > 100 µM (inactive)
- GI50 (SF-268): > 100 µM (inactive)
- GI50 (BT-549): > 100 µM (inactive)
- GI50 (PC-3): > 100 µM (inactive)
- GI50 (HOP-92): > 100 µM (inactive)
- GI50 (MDA-MB-435): > 100 µM (inactive)
- GI50 (UO-31): > 100 µM (inactive)
- GI50 (A498): > 100 µM (inactive)
- GI50 (HCT-15): > 100 µM
- GI50 (TK-10): > 100 µM (inactive)
- GI50 (LOX IMVI): > 100 µM (inactive)
- GI50 (SNB-75): > 100 µM (inactive)

SMILES: O=C1CCC(=O)N1CNc1ccc2c(c1)S(=O)(=O)c1ccccc1O2
- GI50 (DU-145): > 100 µM (inactive)
- GI50 (MDA-MB-231): > 100 µM (inactive)
- GI50 (RPMI-8226): 54.7 µM (inactive)
- GI50 (CAKI-1): > 100 µM (inactive)
- GI50 (OVCAR-4): > 100 µM (inactive)
- GI50 (CCRF-CEM): > 100 µM (inactive)
- GI50 (NCI-H522): > 100 µM (inactive)
- GI50 (MOLT-4): > 100 µM (inactive)
- GI50 (M14): > 100 µM (inactive)
- GI50 (K562): > 100 µM (inactive)
- GI50 (SK-MEL-2): > 100 µM (inactive)
- GI50 (UACC-257): > 100 µM (inactive)
- GI50 (HL-60): > 100 µM (inactive)
- GI50 (HOP-62): > 100 µM (inactive)
- GI50 (IGROV-1): > 100 µM (inactive)
- GI50 (MCF7): > 100 µM (inactive)
- GI50 (NCI-H226): > 100 µM (inactive)
- GI50 (EKVX): 46 µM (inactive)
- GI50 (A549): > 100 µM (inactive)
- GI50 (SK-MEL-5): > 100 µM (inactive)
- GI50 (U-251): > 100 µM (inactive)
- GI50 (Hs-578T): > 100 µM (inactive)
- GI50 (SW-620): > 100 µM (inactive)
- GI50 (ACHN): > 100 µM (inactive)
- GI50 (SF-295): > 100 µM (inactive)
- GI50 (HCT-116): > 100 µM (inactive)
- GI50 (KM12): > 100 µM (inactive)
- GI50 (RXF 393): > 100 µM (inactive)
- GI50 (MDA-N): > 100 µM (inactive)
- GI50 (UACC-62): > 100 µM (inactive)
- GI50 (SK-MEL-28): > 100 µM (inactive)
- GI50 (NCI-H23): > 100 µM (inactive)
- GI50 (NCI/ADR-RES): > 100 µM (inactive)
- GI50 (COLO 205): > 100 µM (inactive)
- GI50 (T47D): > 100 µM (inactive)
- GI50 (SN12C): > 100 µM (inactive)
- GI50 (SF-539): > 100 µM (inactive)
- GI50 (Malme-3M): > 100 µM (inactive)
- GI50 (786-0): > 100 µM (inactive)
- GI50 (SNB-19): > 100 µM (inactive)
- GI50 (OVCAR-8): > 100 µM (inactive)
- GI50 (OVCAR-3): > 100 µM (inactive)
- GI50 (OVCAR-5): > 100 µM (inactive)
- GI50 (HT-29): > 100 µM (inactive)
- GI50 (SF-268): > 100 µM (inactive)
- GI50 (BT-549): > 100 µM (inactive)
- GI50 (PC-3): > 100 µM (inactive)
- GI50 (HOP-92): > 100 µM (inactive)
- GI50 (MDA-MB-435): > 100 µM (inactive)
- GI50 (UO-31): > 100 µM (inactive)
- GI50 (A498): > 100 µM (inactive)
- GI50 (HCT-15): > 100 µM
- GI50 (TK-10): > 100 µM (inactive)
- GI50 (LOX IMVI): > 100 µM (inactive)
